Assay results from the CombiSolv-Exp solvation set (Vermeire and Green 2021).

Test: solvent given as SMILES

Question: For `COC(=O)c1ccc(OC)cc1`, which “solvation free energy, 298 K” value (in O) is on record?
Answer: The value was -5.33 kcal/mol.

Question: What does the source list for `COC(=O)c1ccc(O)cc1`?
Answer: solvation free energy, 298 K (in C1CCOC1): -12.5 kcal/mol; solvation free energy, 298 K (in C1COCCO1): -12.3 kcal/mol; solvation free energy, 298 K (in CC(C)(C)O): -12.2 kcal/mol; solvation free energy, 298 K (in CC(C)=O): -12.3 kcal/mol; solvation free energy, 298 K (in CC(C)CO): -12 kcal/mol; solvation free energy, 298 K (in CCC(C)O): -12.2 kcal/mol; solvation free energy, 298 K (in CCCCCC): -7.42 kcal/mol; solvation free energy, 298 K (in CCCCCCCCCCO): -11.4 kcal/mol; solvation free energy, 298 K (in CCCCCCO): -11.9 kcal/mol; solvation free energy, 298 K (in CCCCCO): -12 kcal/mol; solvation free energy, 298 K (in CCCCO): -12.1 kcal/mol; solvation free energy, 298 K (in CCCCOC(C)=O): -11.8 kcal/mol; solvation free energy, 298 K (in CCCCOCCCC): -10.7 kcal/mol; solvation free energy, 298 K (in CCCO): -12.2 kcal/mol; solvation free energy, 298 K (in CCOC(C)=O): -11.9 kcal/mol; solvation free energy, 298 K (in CCOCC): -11.7 kcal/mol; solvation free energy, 298 K (in CNC=O): -12.7 kcal/mol; solvation free energy, 298 K (in COC(C)(C)C): -11.8 kcal/mol; solvation free energy, 298 K (in NC=O): -12.1 kcal/mol; solvation free energy, 298 K (in O): -9.35 kcal/mol

Question: With `OCCO` as the compound, how does the “solvation free energy, 298 K” value (in O) read?
Answer: Its value is -9.3 kcal/mol.

Question: Which “solvation free energy, 298 K” value (in O) does the source give for `COC(F)(F)C(Cl)Cl` here?
Answer: Its value is -1.12 kcal/mol.

Question: Which “solvation free energy, 298 K” value (in CCCCCCC) does the source give for `FC(F)(F)C(F)(F)C(F)(F)C(F)(F)C(F)(F)C(F)(F)C(F)(F)F` here?
Answer: The value was -2.35 kcal/mol.

Question: What about the “solvation free energy, 298 K” value (in CCCCO) of the same compound?
Answer: The value was -1.29 kcal/mol.

Question: What about the “solvation free energy, 298 K” value (in CCCO) of the same compound?
Answer: Its value is -1.24 kcal/mol.

Question: What about the “solvation free energy, 298 K” value (in S=C=S) of the same compound?
Answer: Its value is -0.45 kcal/mol.

Question: For `C=C(C)C1CCC2(C)CCC=C(C)C2C1` (stereo not given), which “solvation free energy, 298 K” value (in O) is on record?
Answer: Its value is -0.16 kcal/mol.

Question: With `CSc1nc(N=[N+]=[N-])nc(NC(C)C)n1` as the compound, how does the “solvation free energy, 298 K” value (in O) read?
Answer: Its value is -8.19 kcal/mol.

Question: With `Cc1ccc(C(=O)O)cc1` as the compound, how does the “solvation free energy, 298 K” value (in C=CCCCCCCCCCCCCCC) read?
Answer: The value was -6.96 kcal/mol.

Question: And the “solvation free energy, 298 K” value (in CCCCCCCCO)?
Answer: The value was -10.2 kcal/mol.

Question: What about the “solvation free energy, 298 K” value (in O) of the same compound?
Answer: The value was -7.35 kcal/mol.

Question: For `CCCN(CCC)c1c([N+](=O)[O-])cc(S(C)(=O)=O)cc1[N+](=O)[O-]`, which “solvation free energy, 298 K” value (in O) is on record?
Answer: Its value is -7.98 kcal/mol.

Question: For `CCCCCCCCCC(C)=O`, which “solvation free energy, 298 K” value (in O) is on record?
Answer: The value was -2.15 kcal/mol.

Question: For `CCCCCN(C)N=O`, which “solvation free energy, 298 K” value (in O) is on record?
Answer: Its value is -5.05 kcal/mol.

Question: Which results are given for `CCC[N+](=O)[O-]`?
Answer: solvation free energy, 298 K (in CC(C)CC(C)(C)C): -3.94 kcal/mol; solvation free energy, 298 K (in CCCCCC): -4.05 kcal/mol; solvation free energy, 298 K (in CCCCCCC): -3.97 kcal/mol; solvation free energy, 298 K (in CCCCCCCC): -3.95 kcal/mol; solvation free energy, 298 K (in CCCCCCCCCCCCCCCC): -3.79 kcal/mol; solvation free energy, 298 K (in CCCCCCCCO): -4.44 kcal/mol; solvation free energy, 298 K (in O): -3.38 kcal/mol; solvation free energy, 298 K (in [2H]O[2H]): -3.44 kcal/mol

Question: Which “solvation free energy, 298 K” value (in O) does the source give for `O=Nc1ccc2ccccc2c1O` here?
Answer: The value was -8.79 kcal/mol.

Question: With `c1ccsc1` as the compound, how does the “solvation free energy, 298 K” value (in CC(C)O) read?
Answer: The value was -3.75 kcal/mol.

Question: What about the “solvation free energy, 298 K” value (in CCCCCCC) of the same compound?
Answer: Its value is -4.09 kcal/mol.

Question: And the “solvation free energy, 298 K” value (in CCCO)?
Answer: Its value is -3.71 kcal/mol.

Question: What about the “solvation free energy, 298 K” value (in CN1CCCC1=O) of the same compound?
Answer: The value was -4.68 kcal/mol.

Question: What about the “solvation free energy, 298 K” value (in O) of the same compound?
Answer: Its value is -1.39 kcal/mol.

Question: And the “solvation free energy, 298 K” value (in O=CN1CCOCC1)?
Answer: The value was -4.39 kcal/mol.

Question: And the “solvation free energy, 298 K” value (in c1ccccc1)?
Answer: The value was -4.65 kcal/mol.

Question: With `CCCCCCCCCC(=O)OC` as the compound, how does the “solvation free energy, 298 K” value (in O) read?
Answer: Its value is -1.91 kcal/mol.

Question: Which “solvation free energy, 298 K” value (in O) does the source give for `Cc1cc(NS(=O)(=O)c2ccc(N)cc2)no1` here?
Answer: The value was -17.8 kcal/mol.

Question: Which “solvation free energy, 298 K” value (in O) does the source give for `COc1cccc(OC)c1O` here?
Answer: Its value is -6.96 kcal/mol.

Question: Which results are given for `FC(Cl)(Cl)C(F)(Cl)Cl`?
Answer: solvation free energy, 298 K (in C1CCOC1): -4.82 kcal/mol; solvation free energy, 298 K (in C1COCCO1): -4.46 kcal/mol; solvation free energy, 298 K (in CC(C)=O): -4.45 kcal/mol; solvation free energy, 298 K (in CCCCCC): -4.43 kcal/mol; solvation free energy, 298 K (in CCCCCCC): -3.98 kcal/mol; solvation free energy, 298 K (in CCCO): -3.64 kcal/mol; solvation free energy, 298 K (in CCOC(C)=O): -4.62 kcal/mol; solvation free energy, 298 K (in COC(C)(C)C): -4.68 kcal/mol; solvation free energy, 298 K (in O): 0.87 kcal/mol

Question: Which “solvation free energy, 298 K” value (in O) does the source give for `CC1=CCC2(C(C)C)CC12` (stereo not given) here?
Answer: The value was 0.5 kcal/mol.

Question: Which “solvation free energy, 298 K” value (in CN(C)C=O) does the source give for `C=CCCCCCCCC` here?
Answer: The value was -5.12 kcal/mol.

Question: What about the “solvation free energy, 298 K” value (in O) of the same compound?
Answer: Its value is 2.24 kcal/mol.

Question: And the “solvation free energy, 298 K” value (in OCCOCCO)?
Answer: The value was -3.32 kcal/mol.

Question: And the “solvation free energy, 298 K” value (in OCCOCCOCCO)?
Answer: The value was -3.58 kcal/mol.

Question: What about the “solvation free energy, 298 K” value (in OCCOCCOCCOCCO) of the same compound?
Answer: The value was -3.78 kcal/mol.

Question: For `Cc1ccc(C(C)C)c(O)c1`, which “solvation free energy, 298 K” value (in CCCO) is on record?
Answer: The value was -10.2 kcal/mol.

Question: What about the “solvation free energy, 298 K” value (in CCO) of the same compound?
Answer: The value was -10.3 kcal/mol.

Question: What about the “solvation free energy, 298 K” value (in CO) of the same compound?
Answer: The value was -10.3 kcal/mol.

Question: What about the “solvation free energy, 298 K” value (in O) of the same compound?
Answer: Its value is -5.81 kcal/mol.

Question: Which “solvation free energy, 298 K” value (in CCCCCC) does the source give for `CCc1ccccc1O` here?
Answer: Its value is -6.6 kcal/mol.

Question: What about the “solvation free energy, 298 K” value (in O) of the same compound?
Answer: Its value is -5.85 kcal/mol.
